Measurements published in article PMC10060354, “Discovery of a small molecule ligand of FRS2 that inhibits invasion and tumor growth” (Cellular Oncology, 2022).
Where “and” joins values, the source holds several entries; their conditions need not be identical. Equal entries are not always repeated.

Assays:
[1] = tested on: HCT116; experiment: Boyden chamber transwell migration assay; assay type: cell-based, human; details: 2.5, 5 or 10 µM, 48 h
Protocol: (§1) Transwells with 5 μm pore size (83.3932.500; Sarstedt) were coated with 50 µl of 0.06 μg/μl Pure Col Collagen I (5005; Advanced BioMatrix) dissolved in 100% EtOH for a final concentration of 10 μg/cm^2. 10,000 – 15,000 cells were resuspended in serum-free medium or serum-free medium containing the appropriate treatment and seeded in the upper chamber of a 24 well plate containing the coated transwell. The lower chamber was filled with either serum-free medium or serum-free medium with bFGF (25 ng/ml). Transwell migration was allowed for 24 h (DMS114) or 48 h (HCT116) at 37 °C, 5% CO2. Inserts were washed twice with PBS and the remaining non-invading cells on the upper surface of the membrane were removed using a cotton swab. The cells were fixed in 4% paraformaldehyde (28908; Thermo Fisher Scientific) in PBS for 5 min at RT. Fixed cells were washed twice with PBS and stained with DAPI for 15 min at RT. Inserts were washed three times in PBS before images of DAPI-stained nuclei were acquired using a widefield Nikon Ti2 microscope at 40 × magnification. Nuclei were counted on the membrane areas using ImageJ software and plotted on Prism 9 software (GraphPad).

[2] = tested on: DMS114; experiment: Boyden chamber transwell migration assay; assay type: cell-based, human; details: 24 h
Protocol: as §1

[3] = tested on: DAOY FRS2-FLAG cells; experiment: SIA, bFGF-induced collagen I invasion in FRS2-FLAG overexpressing cells; assay type: cell-based; details: Homo sapiens
Protocol: (§2) 1000—2500 cells/well in 100 μl were seeded in 96 well Corning® Spheroid microplate (CLS4520, Sigma-Aldrich) or in cell-repellent 96 well microplate (650,790, Greiner Bio-one). SIA and analysis was performed as described before. In brief: After spheroid formation (24 – 72 h after seeding), 70 µl medium was removed and replaced with the collagen mixture (2.5 mg/ml Pure Col Collagen I (Advanced Biomatrix)), DMEM 1x (from 10 × stock, Sigma, D2429) and 0.4% Sodium bicarbonate (Sigma, S8761)), resulting in a final collagen concentration of 1.75 mg/ml. Embedded spheroids were stimulated with bFGF (100 ng/ml if not otherwise stated), HGF (30 ng /ml) or EGF (20 ng/ml) and distance of invaded cells quantified 24 – 48 h after embedding. Compounds and BGJ398 were added in Dimethylsulfoxid (DMSO) and corresponding DMSO concentrations were used in control samples.
Lentiviral construct pLV[Exp]-hPGK > hFRS2[NM_001278357.1](ns)*/3xFLAG:P2A:Puro was ordered from VectorBuilder (Santa Clara, CA, USA). A FLAG-tag ([…]) was fused to the C-terminus of FRS2. Lentiviral particles were produced by transfection of HEK-293 T cells with transfer plasmids, psPAX2 (#12,260, Addgene) and pCMV-VSV-G plasmid (#8454, Addgene) in a ratio of 5:3:2 using polyethlenimine (24,765–2. Polysciences). Virus supernatant was harvested 30 h post transfection and filtered. […]

[4] = tested on: M059K; experiment: SIA, collagen I invasion; assay type: cell-based; details: Homo sapiens, 100 ng/ml bFGF
Protocol: as §2

[5] = tested on: HCT116; experiment: SIA, collagen I invasion; assay type: cell-based; details: Homo sapiens, HCT-116, 100 ng/ml bFGF
Protocol: as §2

[6] = tested on: pFRS2Y436; experiment: IHC of pFRS2Y436 in SKOV3 flank tumor samples; assay type: in vivo, mice; details: SKOV3 model; end of treatment
Protocol: IHC of tumor sections was performed by Sophistolab (Muttenz, Switzerland) on a Lecia BondMax instrument using Refine HRP-Kits (Leica DS9800). All buffer-solutions were purchased from Lecia Microsystems Newcastle, Ltd and used according to the manufacturer’s guidelines. Paraffin-slides were de-waxed, pre-treated and incubated as follows: ER-solution 2 for 10 min at 95 °C, ER-solution 2 for 20 min at 100 °C and ER-solution 2 for 30 min at 100 °C. pFRS2; Rabbit anti-Phospho FRS2 (PhosphoY 436, Abcam Limited; ab193363), dilution 1:150; phospho-p44/42 MAPK (Erk1/2Thr202/Tyr204) Rabbit mAb (Cell Signaling Technology #4370), dilution 1:1600. The IHC images were captured digitally using a Nikon Epifluorescence Eclipse Ti2 equipped with a Nikon DS-Ri2 color and a Nikon DS-Qi2 monochrome camera.

[7] = Multi-dose MTD with plasma exposure; assay type: in vivo
Protocol: […]. […] Body weights were recorded once daily for 8 days. […] In addition, plasma samples were collected at 0.5, 1, 2 and 5.3 h(s) after the second dose on Day 4 (150 mg/kg, PO; bid × 5 group) and at 0.5, 1, 2 and 6 h(s) after the final dose on Day 5 (200 mg/kg, PO; qd × 5 group). The exposure levels (ng/mL) of 7 in plasma samples were then determined by LC–MS/MS. AUClast was calculated from the area under the plasma concentration–time curve from time zero to time of last measurable concentration.

[8] = In vivo PK of 7 (30, 100, 200 mg/kg PO), plasma and liver exposure; design: species or system ICR mice; details: both sexes, ICR, mouse, plasma, 0.5 h after administration, read-out: plasma concentration reached
Protocol: In vivo PK studies were performed by Pharmacology Discovery Services Taiwan (New Taipei City, Taiwan). 7 (30, 100, and 200 mg/kg, PO) was further administered to groups of 2 male and 2 female (23 ± 3 g) satellite ICR mice in PK study; the plasma and liver samples were harvested at 0.5 h after administration. In addition, one additional group was dosed at 30 mg/kg and the plasma samples were harvested at 1 and 2 h(s) after the treatment. The body and liver weights were recorded. The exposure levels (ng/ml or ng/g) of 7 in plasma and liver samples were then determined by Liquid Chromatograph Tandem Mass Spectrometer (LC–MS/MS), and the plasma: liver ratios were calculated.

[9] = tested on: DAOY siFRS2 cells; experiment: SIA, bFGF-induced collagen I invasion in FRS2-depleted cells; assay type: cell-based, human
Protocol: as §2
siFRS2 in DAOY cells: 50,000 cells/well in 2 ml medium were seeded in 6 well plates and incubated at 37 °C, 5% CO2. The following day cells were transfected with 10 nM siRNA (5 nM Silencer Select, 5 nM Stealth RNAi siRNA) using Lipofectamin RNAiMAX Transfection Reagent (13,778,075; Invitrogen) and Opti-MEM® medium (15,392,402; Gibco). After 6 h, the medium was exchanged with fresh complete medium and further processed for the SIA protocol.

Structure (SMILES): O=[N+]([O-])c1c(Cl)cc(O)c2c1C1C=CCC1C(c1ccc(Cl)cc1)N2 (centres unmarked) [Compound 7]
- basal and bFGF-increased transwell migration (result in words) [1]: abolished
- concentration at which significant reduction of transwell migration was observed [2]: 10 µM
- IC50 [3]: 4.16 µM
- EC50 [4]: 3.28 µM
- EC50 [5]: 0.416 µM
- pFRS2 Y436 in tumor tissues by IHC (result in words) [6]: No clear difference in pFRS2 Y436
- additional body weight loss, days 5-8 ([7]; 200 mg/kg daily for 5 days): 14.6%
- body weight loss, days 1-5 ([7]; 200 mg/kg daily for 5 days): 10%
- multi-dose clinical signs (result in words) ([7]; 200 mg/kg daily for 5 days): induced vocalization, hunchback and decrease in touch response, abdominal and limb tone and low limb post
- plasma concentration reached, multi-dose ([7]; 200 mg/kg once daily for 5 days, day five, for at least six h after administration): 20 µM
- multi-dose mortality (result in words) ([7]; mouse, in vivo): No mortality was noted
- concentration at 0.5 h [8]: 10000 ng/mL and > 20 µM
- IC50 ([9]; Homo sapiens, DAOY siFRS2 (reduced FRS2)): 7.96 µM
- increase of IC50 in cells with reduced FRS2 compared to control ([9]; siFRS2 vs siCTL): more than 2.5 fold
